Experimental data from the supplement of paper PMC10307832.

Experiments:
Experiment in all cases: relative viability (nuclei count vs DMSO), 5 days (fraction); higher = more cells survive
A549 = tested on: A549
In short: (§1)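 After 5 days of treatment, lung cancer cells in 1536-well plates were fixed and stained in a single step (final 0.05% Triton X-100, 1% formaldehyde, 1 ug/ml Hoechst) and their nuclei counted on 4× images. Treatment had been applied by pin tool the day after seeding as one drug alone or as a fixed anchor-drug dose with five library-drug doses (not always all listed) in √10 steps. Relative viability is the nuclei count of treated wells divided by that of vehicle wells, and values are medians of duplicate plates.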

Calu-6 = tested on: Calu-6
In short: as §1

EBC-1 = tested on: EBC-1
In short: as §1

EMC-BAC-2 = tested on: EMC-BAC-2
In short: as §1

HCC-366 = tested on: HCC-366
In short: as §1

HCC-78 = tested on: HCC-78
In short: as §1

IA-LM = tested on: IA-LM
In short: as §1

LCLC-97TM1 = tested on: LCLC-97TM1
In short: as §1

NCI-H1299 = tested on: NCI-H1299
In short: as §1

NCI-H1703 = tested on: NCI-H1703
In short: as §1

NCI-H1395 = tested on: NCI-H1395
In short: as §1

## Cc1cn(-c2cc(NC(=O)c3ccc(C)c(Nc4nccc(-c5cccnc5)n4)c3)cc(C(F)(F)F)c2)cn1 [Nilotinib] + C[C@@H](Oc1cc(-c2cnn(C3CCNCC3)c2)cnc1N)c1c(Cl)ccc(F)c1Cl [Crizotinib] (partner 1 µM)
A549; first compound 0.001 µM
  relative viability: 0.916
A549; first compound 0.003162 µM
  relative viability: 0.976
A549; first compound 0.01 µM
  relative viability: 1.09
A549; first compound 0.03162 µM
  relative viability: 0.501
A549; first compound 0.1 µM
  relative viability: 0.547
Calu-6; first compound 0.001 µM
  relative viability: 0.677
Calu-6; first compound 0.003162 µM
  relative viability: 0.798
Calu-6; first compound 0.01 µM
  relative viability: 1.19
Calu-6; first compound 0.03162 µM
  relative viability: 0.548
Calu-6; first compound 0.1 µM
  relative viability: 0.637
EBC-1; first compound 0.001 µM
  relative viability: 0.216
EBC-1; first compound 0.003162 µM
  relative viability: 0.202
EBC-1; first compound 0.01 µM
  relative viability: 0.174
EBC-1; first compound 0.03162 µM
  relative viability: 0.157
EBC-1; first compound 0.1 µM
  relative viability: 0.164
EMC-BAC-2; first compound 0.001 µM
  relative viability: 0.676
EMC-BAC-2; first compound 0.003162 µM
  relative viability: 0.682
EMC-BAC-2; first compound 0.01 µM
  relative viability: 0.795
EMC-BAC-2; first compound 0.03162 µM
  relative viability: 0.673
EMC-BAC-2; first compound 0.1 µM
  relative viability: 0.753
HCC-366; first compound 0.001 µM
  relative viability: 0.484
HCC-366; first compound 0.003162 µM
  relative viability: 0.627
HCC-366; first compound 0.01 µM
  relative viability: 1.38
HCC-366; first compound 0.03162 µM
  relative viability: 0.389
HCC-366; first compound 0.1 µM
  relative viability: 0.609
HCC-78; first compound 0.001 µM
  relative viability: 0.351
HCC-78; first compound 0.003162 µM
  relative viability: 0.239
HCC-78; first compound 0.01 µM
  relative viability: 0.432
HCC-78; first compound 0.03162 µM
  relative viability: 0.333
HCC-78; first compound 0.1 µM
  relative viability: 0.361
IA-LM; first compound 0.003162 µM
  relative viability: 0.77
IA-LM; first compound 0.01 µM
  relative viability: 0.835
IA-LM; first compound 0.03162 µM
  relative viability: 0.637
IA-LM; first compound 0.1 µM
  relative viability: 0.659
LCLC-97TM1; first compound 0.001 µM
  relative viability: 0.246
LCLC-97TM1; first compound 0.003162 µM
  relative viability: 0.328
LCLC-97TM1; first compound 0.01 µM
  relative viability: 0.712
LCLC-97TM1; first compound 0.03162 µM
  relative viability: 0.311
LCLC-97TM1; first compound 0.1 µM
  relative viability: 0.469
NCI-H1299; first compound 0.001 µM
  relative viability: 0.925
NCI-H1299; first compound 0.003162 µM
  relative viability: 1.01
NCI-H1299; first compound 0.01 µM
  relative viability: 1.07
NCI-H1299; first compound 0.03162 µM
  relative viability: 0.918
NCI-H1299; first compound 0.1 µM
  relative viability: 0.969
NCI-H1703; first compound 0.003162 µM
  relative viability: 0.403
NCI-H1703; first compound 0.01 µM
  relative viability: 0.291
NCI-H1703; first compound 0.03162 µM
  relative viability: 0.191
NCI-H1703; first compound 0.1 µM
  relative viability: 0.175

## Cc1cn(-c2cc(NC(=O)c3ccc(C)c(Nc4nccc(-c5cccnc5)n4)c3)cc(C(F)(F)F)c2)cn1 [Nilotinib] + Cc1nc(NC(=O)N2CCC[C@H]2C(N)=O)sc1-c1ccnc(C(C)(C)C(F)(F)F)c1 [Alpelisib] (partner 2 µM)
A549; first compound 0.001 µM
  relative viability: 0.721
A549; first compound 0.003162 µM
  relative viability: 0.817
A549; first compound 0.01 µM
  relative viability: 1.02
A549; first compound 0.03162 µM
  relative viability: 0.543
A549; first compound 0.1 µM
  relative viability: 0.649
Calu-6; first compound 0.001 µM
  relative viability: 1.11
Calu-6; first compound 0.01 µM
  relative viability: 1.03
Calu-6; first compound 0.03162 µM
  relative viability: 0.989
Calu-6; first compound 0.1 µM
  relative viability: 0.958
EBC-1; first compound 0.001 µM
  relative viability: 0.787
EBC-1; first compound 0.003162 µM
  relative viability: 0.796
EBC-1; first compound 0.01 µM
  relative viability: 0.811
EBC-1; first compound 0.03162 µM
  relative viability: 0.566
EBC-1; first compound 0.1 µM
  relative viability: 0.689
EMC-BAC-2; first compound 0.001 µM
  relative viability: 0.728
EMC-BAC-2; first compound 0.003162 µM
  relative viability: 0.893
EMC-BAC-2; first compound 0.01 µM
  relative viability: 0.883
EMC-BAC-2; first compound 0.03162 µM
  relative viability: 0.668
EMC-BAC-2; first compound 0.1 µM
  relative viability: 0.787
HCC-366; first compound 0.001 µM
  relative viability: 0.312
HCC-366; first compound 0.003162 µM
  relative viability: 0.43
HCC-366; first compound 0.01 µM
  relative viability: 0.428
HCC-366; first compound 0.03162 µM
  relative viability: 0.248
HCC-366; first compound 0.1 µM
  relative viability: 0.342
HCC-78; first compound 0.001 µM
  relative viability: 0.347
HCC-78; first compound 0.003162 µM
  relative viability: 0.381
HCC-78; first compound 0.01 µM
  relative viability: 0.444
HCC-78; first compound 0.03162 µM
  relative viability: 0.34
HCC-78; first compound 0.1 µM
  relative viability: 0.382
IA-LM; first compound 0.001 µM
  relative viability: 0.653
IA-LM; first compound 0.003162 µM
  relative viability: 0.679
IA-LM; first compound 0.01 µM
  relative viability: 0.781
IA-LM; first compound 0.03162 µM
  relative viability: 0.606
IA-LM; first compound 0.1 µM
  relative viability: 0.963
LCLC-97TM1; first compound 0.003162 µM
  relative viability: 0.311
LCLC-97TM1; first compound 0.01 µM
  relative viability: 0.279
LCLC-97TM1; first compound 0.03162 µM
  relative viability: 0.22
LCLC-97TM1; first compound 0.1 µM
  relative viability: 0.275
NCI-H1395; first compound 0.001 µM
  relative viability: 0.877
NCI-H1395; first compound 0.003162 µM
  relative viability: 0.929
NCI-H1395; first compound 0.03162 µM
  relative viability: 0.977
NCI-H1395; first compound 0.1 µM
  relative viability: 0.99
NCI-H1703; first compound 0.001 µM
  relative viability: 0.338
NCI-H1703; first compound 0.003162 µM
  relative viability: 0.249
NCI-H1703; first compound 0.01 µM
  relative viability: 0.171
NCI-H1703; first compound 0.03162 µM
  relative viability: 0.166
NCI-H1703; first compound 0.1 µM
  relative viability: 0.175

## CN1CCN(CCOc2cc(OC3CCOCC3)c3c(Nc4c(Cl)ccc5c4OCO5)ncnc3c2)CC1 [Saracatinib] + CC(C)C[C@H](NC(=O)[C@H](Cc1ccccc1)NC(=O)c1cnccn1)B(O)O [Bortezomib] (partner 0.002 µM)
Calu-6; first compound 0.02 µM
  relative viability: 0.939
Calu-6; first compound 0.2 µM
  relative viability: 0.796
Calu-6; first compound 0.6325 µM
  relative viability: 0.807
Calu-6; first compound 2 µM
  relative viability: 0.656
EBC-1; first compound 0.02 µM
  relative viability: 0.553
EBC-1; first compound 0.2 µM
  relative viability: 0.484
EBC-1; first compound 0.6325 µM
  relative viability: 0.628
EBC-1; first compound 2 µM
  relative viability: 0.531
EMC-BAC-2; first compound 0.02 µM
  relative viability: 1.02
EMC-BAC-2; first compound 0.2 µM
  relative viability: 1
EMC-BAC-2; first compound 0.6325 µM
  relative viability: 1.19
EMC-BAC-2; first compound 2 µM
  relative viability: 1.03
HCC-366; first compound 0.02 µM
  relative viability: 1.04
HCC-366; first compound 0.6325 µM
  relative viability: 0.935
HCC-366; first compound 2 µM
  relative viability: 0.769
HCC-78; first compound 0.02 µM
  relative viability: 0.505
HCC-78; first compound 0.2 µM
  relative viability: 0.513
HCC-78; first compound 0.6325 µM
  relative viability: 0.583
HCC-78; first compound 2 µM
  relative viability: 0.357
IA-LM; first compound 0.02 µM
  relative viability: 0.87
IA-LM; first compound 0.6325 µM
  relative viability: 1.31
IA-LM; first compound 2 µM
  relative viability: 0.909
LCLC-97TM1; first compound 0.02 µM
  relative viability: 0.786
LCLC-97TM1; first compound 0.6325 µM
  relative viability: 0.995
LCLC-97TM1; first compound 2 µM
  relative viability: 0.523
NCI-H1299; first compound 0.02 µM
  relative viability: 1.05
NCI-H1299; first compound 0.2 µM
  relative viability: 1.03
NCI-H1299; first compound 0.6325 µM
  relative viability: 1.01
NCI-H1299; first compound 2 µM
  relative viability: 1.09
NCI-H1703; first compound 0.02 µM
  relative viability: 0.304
NCI-H1703; first compound 0.2 µM
  relative viability: 0.314
NCI-H1703; first compound 0.6325 µM
  relative viability: 0.293
NCI-H1703; first compound 2 µM
  relative viability: 0.22
